Laboratory results published in the NIST ThermoML archive (doi:10.1016/j.tca.2012.11.015).

Experiment: molar heat capacity at constant pressure
Settings: 101.33 kPa, Crystal, Small sample (50 mg) DSC

[F-].[F-].[F-].[F-].[Li+].[Lu+3] [lithium lutetium fluoride]
Settings | molar heat capacity at constant pressure [J/K/mol]
319.1 K | 130.85
320.6 K | 131.02
322.3 K | 131.32
324.2 K | 132.25
326.3 K | 132.67
328.5 K | 133
330.9 K | 133.72
333.4 K | 133.98
336 K | 134.52
338.8 K | 134.79
341.6 K | 135.17
344.6 K | 135.52
347.6 K | 135.82
350.6 K | 136.23
353.7 K | 136.42
356.9 K | 136.86
360.1 K | 137.1
363.4 K | 137.35
366.6 K | 137.71
369.9 K | 138.05
373.2 K | 138.18
376.4 K | 138.33
379.7 K | 138.6
382.9 K | 138.79
386.1 K | 139.07
389.3 K | 139.36
392.5 K | 139.51
395.7 K | 139.75
398.8 K | 140.02
401.9 K | 140.28
405 K | 140.35
408.1 K | 140.55
411.1 K | 140.85
414.1 K | 141
417.1 K | 141.21
420.1 K | 141.55
423.1 K | 141.68
426 K | 141.88
428.9 K | 142.09
431.8 K | 142.34
434.6 K | 142.51
437.4 K | 142.74
440.3 K | 142.93
443.1 K | 143.15
445.8 K | 143.38
448.6 K | 143.52
451.3 K | 143.71
454.1 K | 144.09
456.8 K | 144.11
459.5 K | 144.4
462.2 K | 144.65
464.9 K | 144.87
467.6 K | 145.03
470.3 K | 145.2
473 K | 145.33
475.6 K | 145.69
478.3 K | 146.04
480.9 K | 146.21
483.5 K | 146.26
486.2 K | 146.62
488.8 K | 146.64
491.4 K | 146.9
494 K | 147.09
496.6 K | 147.19
499.2 K | 147.37
501.8 K | 147.62
504.4 K | 147.87
506.9 K | 148.03
509.5 K | 148.01
512.1 K | 148.31
514.7 K | 148.51
517.2 K | 148.78
519.8 K | 148.72
522.4 K | 148.99
524.9 K | 149.11
527.5 K | 149.23
530 K | 149.4
532.6 K | 149.69
535.1 K | 149.98
537.6 K | 150.02
540.2 K | 150.02
542.7 K | 150.2
545.2 K | 150.41
547.8 K | 150.44
550.3 K | 150.65
552.8 K | 150.77
555.4 K | 150.97
557.9 K | 151.21
560.4 K | 151.31
562.9 K | 151.22
565.4 K | 151.35
567.9 K | 151.77
570.4 K | 152.1
572.9 K | 151.97
575.4 K | 152.01
577.9 K | 152.43
580.4 K | 152.52
582.9 K | 152.55
585.4 K | 152.99
587.9 K | 153.06
590.4 K | 153.4
592.8 K | 153.37
595.3 K | 153.54
597.8 K | 153.59
600.3 K | 153.68
602.8 K | 153.91
605.3 K | 153.92
607.7 K | 153.98
610.2 K | 154.22
612.7 K | 154.27
615.2 K | 154.37
617.6 K | 154.5
620.1 K | 154.88
622.6 K | 154.95
625.1 K | 154.9
627.5 K | 155.19
630 K | 155.25
632.5 K | 155.38
634.9 K | 155.28
637.4 K | 155.32
639.9 K | 155.57
642.3 K | 155.79
644.8 K | 156.13
647.3 K | 155.71
649.7 K | 156.15
652.2 K | 156.38
654.7 K | 156.1
657.1 K | 156.18
659.6 K | 156.74
662.1 K | 156.82
664.5 K | 156.91
667 K | 157.05
669.5 K | 157.26
671.9 K | 157.26
674.4 K | 157.34
676.9 K | 157.51
679.3 K | 157.82
681.8 K | 157.78
684.3 K | 157.7
686.7 K | 157.84
689.2 K | 158.11
691.6 K | 158.21
694.1 K | 158.28
696.6 K | 158.3
699 K | 158.66
701.5 K | 158.32
704 K | 158.88
706.4 K | 158.86
708.9 K | 158.73
711.3 K | 159.06
713.8 K | 159.12
716.3 K | 159.23
718.7 K | 159.5
721.2 K | 159.17
723.7 K | 159.42
726.1 K | 159.52
728.6 K | 159.81
731 K | 159.67
733.5 K | 159.82
736 K | 160.19
738.4 K | 160.21
740.9 K | 159.84
743.4 K | 160.74
745.8 K | 160.23
748.3 K | 160.71
750.8 K | 160.51
753.2 K | 160.71
755.7 K | 160.47
758.1 K | 161.09
760.6 K | 160.99
763.1 K | 161.08
765.5 K | 161.21
768 K | 161.19
770.5 K | 161.33
773 K | 161.68
775.4 K | 161.44
777.9 K | 161.42
780.4 K | 161.69
782.8 K | 161.76
785.3 K | 161.68
787.8 K | 161.79
790.2 K | 161.81
792.7 K | 161.94
795.2 K | 162.55
797.7 K | 162.37
800.1 K | 162.27
802.6 K | 162.36
805.1 K | 162.55
807.5 K | 162.68
810 K | 162.67
812.5 K | 162.66
815 K | 162.95
817.4 K | 162.84
819.9 K | 162.94
822.4 K | 163.1
824.9 K | 163.41
827.3 K | 163.19
829.8 K | 163.53
832.3 K | 163.61
834.8 K | 163.59
837.3 K | 163.47
839.8 K | 163.45
842.2 K | 163.53
844.7 K | 163.85
847.2 K | 163.88
849.6 K | 163.86
852.1 K | 163.85
854.6 K | 163.88
857.1 K | 163.9
859.6 K | 164.11
862.1 K | 164.25
864.6 K | 164.33
867 K | 164.11
869.5 K | 164.63
872 K | 164.68
874.5 K | 164.55
877 K | 164.67
879.5 K | 164.73
881.9 K | 165.01
884.4 K | 164.63
886.9 K | 165.15
889.4 K | 164.71
891.9 K | 164.79
894.4 K | 164.9
896.9 K | 165
899.4 K | 165.27
901.8 K | 165.61
904.3 K | 165.53
906.8 K | 165.9
909.3 K | 165.68
911.8 K | 166.05
914.3 K | 165.94
916.8 K | 165.71
919.3 K | 165.93
921.7 K | 165.89
924.2 K | 166.2
926.7 K | 166.37
929.2 K | 166.53
931.7 K | 166.66
934.2 K | 166.07
936.7 K | 166.68
939.2 K | 167.32
941.7 K | 167.41
944.2 K | 167.52
946.7 K | 167.43
949.2 K | 167.53
951.7 K | 167.51
